The target of one experiment is rat EP4 receptor (Rattus norvegicus, UniProt P43114). As to the kind of experiment: Evaluation test on EP4 receptor affinity in rat ([3H]PGE2 receptor binding test, membrane fraction). Details: expressed in transfected cells; host or cells: HEK293 cells, transient transfection (Lipofectamine 2000); membrane fraction used. Conditions: [3H]PGE2 0.3 nM, membrane fraction of rat EP4 expressing HEK293 cells. The procedure: A rat EP4 receptor cDNA was subcloned into an expression vector (pcDNA3.1-V5-His-topo, manufactured by Invitrogen Corporation) to prepare a rat EP4 expression vector. HEK293 cells were cultured in a collagen type I-treated 15 cm dish (manufactured by Asahi Techno Glass Co. Ltd.) to a confluence of 70%. An Opti-MEM culture medium at 1.2 mL/dish and a transfection reagent (Lipofectamine 2000, manufactured by Invitrogen Corporation) at 60 μL/dish were mixed, followed by being left to stand at room temperature for 5 minutes. Then, the rat EP4 receptor expression vector at 15 μg/dish was added thereto, followed by being left to stand at room temperature for 30 minutes. The liquid mixture of the transfection reagent was added into the dish, followed by culturing for 20 to 24 hours. The cell culture was carried out in a CO2 incubator (37° C., 5% CO2).
The culture medium was removed by suction, 10 mL of cooled PBS was added thereto per 15 cm dish, and the cells were scraped using a cell scraper. After washed with cooled PBS (1,200 rpm, 4° C., 5 minutes), suspended in 6 mL/dish of cooled 20 mM Tris-HCl (pH 7.4; manufactured by Nacalai Tesque Inc., 5 mM EDTA included) and homogenized using a Polytron, the homogenate was centrifuged (26,000 rpm, 20 minutes, 4° C.). The obtained precipitate was resuspended in cooled 20 mM Tris-HCl and homogenized again using a Polytron, and the homogenate was centrifuged (26,000 rpm, 20 minutes, 4° C.). The obtained precipitate was resuspended in 50 mM HEPES (pH 7.5; manufactured by Dojindo Laboratories) at 1 mL per dish, homogenized using a Polytron, and freeze-stored at −80° C. as a membrane fraction. At this time, a part thereof was used for the measurement of the protein concentration. Measurement of the protein concentration was carried out using a Protein assay stain (manufactured by Bio-Rad Laboratories) in accordance with a standard Protocol as appended in duplicate.
[^3H]PGE2 50 μL (final concentration 0.3 nM; manufactured by Perkin Elmer Co., Ltd.), 100 μL (20 μg/well) of the membrane fraction prepared from the rat EP4 expression cell, and 50 μL of a test compound were mixed in a 96-well microplate (manufactured by Sumitomo Bakelite Co., Ltd.), incubated at room temperature for 1 hour, then filtered by suction on a microplate (UniFilter-96 GF/B, manufactured by Perkin Elmer Co., Ltd.) using a cell harvester (FilterMate Harvester, manufactured by Perkin Elmer Co., Ltd.), and washed three times with 300 μL/well of a cooled assay buffer (50 mM HEPES, 10 mM MgCl2). Dilution of [^3H]PGE2 and the membrane fraction was carried out using the assay buffer, and dilution of the test compound and the unlabeled PGE2 was carried out using dimethyl sulfoxide and the assay buffer. The UniFilter-96 GF/B was treated by preliminarily washing twice with 200 μL/well of the cooled assay buffer. The UniFilter-96 GF/B after filtration was dried in a dryer overnight, 50 μL/well of a liquid scintillation cocktail (MicroScint20, manufactured by Perkin Elmer Co., Ltd.) was added thereto, and the radioactivity was then measured using a liquid scintillation counter for a microplate (TopCount, manufactured by Perkin Elmer Co., Ltd.). For measurement of the non-specific binding, an unlabeled PGE2 (final concentration 1 μM; manufactured by Cayman Chemical Company) was added. All of the measurements were carried out in duplicate, and the specific binding amount was determined by subtracting the non-specific binding amount from the total binding amount.
According to the test method as described above, the rat EP4 receptor affinity (Ki) of the compound of the formula (I) was measured. […] In this connection, Ex means Example Compound number.

In experiment [1] the test system is LPS-induced TNF-α production in THP-1 cells. The experiment in a line: Inhibitory action on LPS-induced TNF-α production in THP-1 cells. The class given is cell-based. Conditions: Homo sapiens, 3 hours after LPS, ELISA. The procedure: Human monocytic cell line THP-1 cells were suspended in an assay medium (PRMI-1640 containing 10% fetal bovine serum, 100 unit/mL penicillin G sodium, and 100 μg/mL streptomycin sulfate), and seeded onto a 96-well plate at 1×10^5 cells/well. 50 μL/well of an assay medium containing a test compound was added thereto, followed by incubation at 37° C. for 30 minutes. Further, 50 μL/well of an assay medium containing 1 to 5 μg/mL of LPS was added thereto, and the TNF-α concentration in the assay medium of each well after 3 hours was measured. The measurement was carried out by means of a standard ELISA method. A 96-well plate which had been coated overnight with an anti-human TNF monoclonal antibody (clone: MAb1) (manufactured by Becton, Dickinson and Company) as a capture antibody was washed with a wash buffer (PBS containing 0.05% Tween-20), and PBS containing 10% fetal bovine serum was incubated at room temperature for 1 hour to perform blocking. After washing with a wash buffer, 100 μL/well of the assay medium to be measured was incubated at 4° C. overnight. As the standard material to be measured, a recombinant human TNF (manufactured by Becton, Dickinson and Company) was used. After washing with a wash buffer, 100 μL of a biotinylated anti-human TNF monoclonal antibody (clone: MAb11) as a detection antibody was treated at room temperature for 1 hour. After washing with a wash buffer, it was treated with 100 μL/well of an HRP-labeled Streptavidin (manufactured by Zymed Laboratories, Inc.) at room temperature for 30 minutes, and washed again. Treatment was conducted using 100 μL/well of a TMB (3,3′,5,5′-tetramethylbenzidine) substrate liquid at room temperature for 20 minutes in a dark room. A 2 M sulfuric acid was added thereto at 50 μL/well to stop the reaction, and an absorbance at 450 nm/570 nm was measured by means of a plate reader SPECRA max (manufactured by Molecular Devices Inc.).
(In general: ELISA stands for enzyme-linked immunosorbent assay.)

For the next experiment, the system named is TNF-α production. As to the kind of experiment: In vivo TNF-α production inhibiting action in rat (LPS-induced plasma TNF-α). The following applies: oral administration 1 hour before LPS (10 μg/kg i.v.), plasma TNF-α 90 minutes after LPS. More on the design: species or system SD male rats. The protocol: LPS (10 μg/kg) was administered to caudal veins of SD male rats, and after 90 minutes from the administration, the heparin blood was collected from the abdominal vena cava to prepare a plasma. The test compound was orally administered 1 hour before the administration of LPS. The amount of TNF-α in the plasma was measured using a BD OptEIA rat TNF ELISA set (manufactured by Becton, Dickinson and Company) according to the attached method. The inhibitory rate by the test compound was determined from the amount of TNF-α in plasma in a control group (administered with a solvent).

For orientation: Ki means a measure of affinity in units of concentration, obtained from inhibition or displacement. By IC50 is commonly meant the midpoint of a concentration-inhibition curve. A high value points to lower potency. The ED50 is the midpoint of the dose-response relation.

rat EP4 receptor, sequence (P43114 whole entry): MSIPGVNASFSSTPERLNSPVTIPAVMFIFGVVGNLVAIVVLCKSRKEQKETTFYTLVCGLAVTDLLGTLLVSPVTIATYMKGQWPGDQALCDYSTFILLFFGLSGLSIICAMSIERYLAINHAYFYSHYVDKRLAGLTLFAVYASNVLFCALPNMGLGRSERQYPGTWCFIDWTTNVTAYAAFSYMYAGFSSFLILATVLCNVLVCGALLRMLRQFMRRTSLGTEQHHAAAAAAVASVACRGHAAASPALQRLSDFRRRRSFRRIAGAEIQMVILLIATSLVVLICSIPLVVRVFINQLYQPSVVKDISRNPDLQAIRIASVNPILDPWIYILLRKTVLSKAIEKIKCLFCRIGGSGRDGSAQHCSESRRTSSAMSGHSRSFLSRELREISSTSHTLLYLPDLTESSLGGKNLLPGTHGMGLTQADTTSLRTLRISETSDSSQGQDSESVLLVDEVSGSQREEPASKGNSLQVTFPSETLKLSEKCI

Compound `Cc1cccc(N(C)Cc2c(Cl)cc(Cl)c(=O)n2CCc2ccc(C(=O)O)cc2)c1` [Example 6, 4-{2-[3,5-dichloro-6-{[methyl(3-methylphenyl)amino]methyl}-2-oxopyridin-1(2H)-yl]ethyl}benzoic acid] returned a Ki at rat EP4 receptor of 11 nM. The compound `CC(C)C[C@H]1CCCN1Cc1c(Cl)cc(Cl)c(=O)n1CCc1ccc(C(=O)O)cc1` [Ex 18] registered a Ki on rat EP4 receptor of 4.4 nM.

Take `CN(Cc1c(Cl)cc(Cl)c(=O)n1CCc1ccc(C(=O)O)cc1)C1CCCC1` [Ex 26]: in experiment [1], the IC50 worked out at 12 nM. The compound `Cc1cc(C)c(=O)n(CCc2ccc(-c3n[nH]c(=O)o3)cc2)c1CN1CCC[C@@H]1CC(C)C` [Example 345] yielded a Ki at rat EP4 receptor of 2.2 nM. In the experiment on TNF-α production, this compound returned an ED50 of 1.9 mg/kg. For the same compound, half-maximal inhibition in experiment [1] (IC50) required 13 nM. Consider `CN(Cc1c(Cl)cc(Cl)c(=O)n1CCc1ccc(C(=O)O)cc1)c1cccc(F)c1` [Example 122], for which, at rat EP4 receptor, the Ki was found to be 16 nM. This counts as double-digit nanomolar.

In turn, `CCc1cccc2c1N(Cc1c(Cl)cc(Cl)c(=O)n1CCc1ccc(C(=O)O)cc1)CC2` [Example 13] returned a Ki at rat EP4 receptor of 24 nM. The IC50 in experiment [1] came to 7.4 nM.

Take `CCC[C@H]1CCCN1Cc1c(Cl)cc(Cl)c(=O)n1CCc1ccc(-c2nnn[nH]2)cc1` [Ex 42]: the Ki at rat EP4 receptor is 0.52 nM. Further, the ED50 with TNF-α production came to 0.076 mg/kg. The compound further yielded an IC50 in experiment [1] of 15 nM. Consider `COc1cc(OC)cc(N(C)Cc2c(Cl)cc(Cl)c(=O)n2CCc2ccc(C(=O)O)cc2)c1` [Example 125], for which, at rat EP4 receptor, the Ki turned out to be 29 nM. On rat EP4 receptor, `CCc1ccc2c(c1)N(Cc1c(Cl)cc(Cl)c(=O)n1CCc1ccc(C(=O)O)cc1)CC2` [Example 15, 4-(2-{3,5-dichloro-6-[(6-ethyl-2,3-dihydro-1H-indol-1-yl)methyl]-2-oxopyridin-1(2H)-yl}ethyl)benzoic acid] displayed a Ki of 3.6 nM. `CCN(Cc1c(Cl)cc(Cl)c(=O)n1CCc1ccc(C(=O)O)cc1)c1cccc(C(C)C)c1` [Example 123] came in with a Ki at rat EP4 receptor of 21 nM.

As to `CN(Cc1c(Cl)cc(Cl)c(=O)n1CCc1ccc(C(=O)O)cc1)c1cccc(OC(F)(F)F)c1` [Ex 19], the Ki at rat EP4 receptor was 5.4 nM. Turning to `COc1cccc(N(C)Cc2c(Cl)cc(Cl)c(=O)n2CCc2ccc(C(=O)O)cc2)c1` [Example 124], on rat EP4 receptor, the affinity, expressed as Ki, was 6.2 nM. The Ki values of the last two compounds are within 1.5-fold of each other. With `Cc1c(F)ccc2c1N(Cc1c(Cl)cc(Cl)c(=O)n1CCc1ccc(C(=O)O)cc1)CC2` [Example 149], at rat EP4 receptor, the Ki came to 9.5 nM. This compound also gave an IC50 in experiment [1] of 2.8 nM. Turning to `CC(C)c1ccc2c(c1)N(Cc1c(Cl)cc(Cl)c(=O)n1CCc1ccc(C(=O)O)cc1)CC2` [Example 143], on rat EP4 receptor, the Ki was 11 nM.

With `O=C(O)c1ccc(CCn2c(CN3CCc4ccccc43)c(Cl)cc(Cl)c2=O)cc1` [Example 16, 4-{2-[3,5-dichloro-6-(2,3-dihydro-1H-indol-1-ylmethyl)-2-oxopyridin-1(2H)-yl]ethyl}benzoic acid], on rat EP4 receptor, the Ki is 13 nM. This Ki and that of the compound before are within 1.5-fold of each other. At rat EP4 receptor, `CC(C)c1cccc(NCc2c(Cl)cc(Cl)c(=O)n2CCc2ccc(C(=O)O)cc2)c1` [Example 91] registered a Ki of 9.8 nM. On rat EP4 receptor, `CC(C)c1cccc(N(C)Cc2c(Cl)cc(Cl)c(=O)n2CCc2ccc(C(=O)O)cc2)c1` [Example 5, 4-{2-[3,5-dichloro-6-{[(3-isopropylphenyl)(methyl)amino]methyl}-2-oxopyridin-1(2H)-yl]ethyl}benzoic acid] came in with a Ki of 4.7 nM. This Ki lies about 2.1-fold lower than the previous one. Compound `CCc1cccc(NCc2c(Cl)cc(Cl)c(=O)n2CCc2ccc(C(=O)O)cc2)c1` [Example 97] yielded a Ki on rat EP4 receptor of 11 nM. Compound `COc1cccc2c1N(Cc1c(Cl)cc(Cl)c(=O)n1CCc1ccc(C(=O)O)cc1)CC2` [Example 146] yielded a Ki at rat EP4 receptor of 39 nM. With `O=C(O)c1ccc(CCn2c(CN3CCc4ccc(Cl)cc43)c(Cl)cc(Cl)c2=O)cc1` [Example 150], the Ki on rat EP4 receptor amounted to 15 nM. The same measure, in the same setting: the value for `CCCC[C@H]1CCCN1Cc1c(Cl)cc(Cl)c(=O)n1CCc1ccc(C(=O)O)cc1` [Example 158] was 8.6 nM.

`O=C(O)c1ccc(CCn2c(CN3CCc4ccc(OC(F)(F)F)cc43)c(Cl)cc(Cl)c2=O)cc1` [Example 152] registered a Ki on rat EP4 receptor of 5.1 nM. As to `COc1ccc2c(c1)N(Cc1c(Cl)cc(Cl)c(=O)n1CCc1ccc(C(=O)O)cc1)CC2` [Example 130], the affinity on rat EP4 receptor, expressed as Ki, was 4.1 nM. The Ki values of the last two compounds are within 1.5-fold of each other. As to `Cc1cc(C2CC2)c(CN2CCC[C@@H]2CC(C)C)n(CCc2ccc(-c3n[nH]c(=O)o3)cc2)c1=O` [Example 346], the Ki on rat EP4 receptor is 2.8 nM. The compound also yielded a median effective dose (ED50) in the experiment with TNF-α production of 2 mg/kg. `Cc1cc(C2CC2)c(CN2CCC[C@@H]2CC(C)C)n(CCc2ccc(C(=O)O)cc2)c1=O` [Ex 27] yielded a Ki on rat EP4 receptor of 25 nM. In experiment [1], the IC50 came out at 12 nM. Compound `Cc1ccc2c(c1)CCCN2Cc1c(Cl)cc(Cl)c(=O)n1CCc1ccc(C(=O)O)cc1` [Example 145] showed a Ki on rat EP4 receptor of 19 nM. As for `O=C(O)c1ccc(CCn2c(CN3CCc4ccc(C(F)(F)F)cc43)c(Cl)cc(Cl)c2=O)cc1` [Example 153], the Ki at rat EP4 receptor worked out at 4.9 nM. This Ki is about 3.9-fold lower than that of the compound before. The compound `Cc1ccc2c(c1)N(Cc1c(Cl)cc(Cl)c(=O)n1CCc1ccc(C(=O)O)cc1)CC2` [Example 138] had an inhibitory constant (Ki) at rat EP4 receptor of 7.7 nM.

`Cc1cccc2c1N(Cc1c(Cl)cc(Cl)c(=O)n1CCc1ccc(C(=O)O)cc1)CC2` [Example 139]: the Ki on rat EP4 receptor is 12 nM. On to `O=C(O)c1ccc(CCn2c(CNc3cccc(C(F)(F)F)c3)c(Cl)cc(Cl)c2=O)cc1` [Example 99], for which affinity at rat EP4 receptor was put at a Ki of 25 nM.

(Values after patent publication US20110082133A1, “PYRIDONE COMPOUNDS” (priority 2008, published 2011).)
